Biological target: T1, L-selectin (Homo sapiens, UniProt P14151)
T1 construct: gene SELL
T1 sequence (P14151 39-372): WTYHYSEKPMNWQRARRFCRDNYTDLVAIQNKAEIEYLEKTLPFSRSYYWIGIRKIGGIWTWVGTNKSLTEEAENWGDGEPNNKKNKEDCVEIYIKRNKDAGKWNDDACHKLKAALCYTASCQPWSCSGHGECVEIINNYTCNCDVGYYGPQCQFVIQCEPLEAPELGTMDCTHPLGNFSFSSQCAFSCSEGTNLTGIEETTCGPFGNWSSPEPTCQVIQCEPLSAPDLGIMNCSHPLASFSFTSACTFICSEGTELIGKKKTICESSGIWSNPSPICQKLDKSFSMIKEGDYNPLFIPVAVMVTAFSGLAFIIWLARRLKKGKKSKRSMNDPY
Assay: competitive SPR binding assay

## CC1(C)O[C@H](COS(=O)(=O)O)[C@H](NC(=O)c2ccc(-c3cc(-c4ccc(C(=O)N[C@@H]5[C@@H](OS(=O)(=O)O)[C@H](COS(=O)(=O)O)C(C)(C)O[C@@H]5COS(=O)(=O)O)cc4)cc(-c4ccc(C(=O)N[C@@H]5[C@@H](OS(=O)(=O)O)[C@H](COS(=O)(=O)O)C(C)(C)O[C@@H]5COS(=O)(=O)O)cc4)c3)cc2)[C@@H](OS(=O)(=O)O)[C@@H]1COS(=O)(=O)O [compound 34, O-sulfated trivalent amide 34]
  IC50: 2000 nM

## O=C(NC(COS(=O)(=O)O)COS(=O)(=O)O)c1ccc(C(=O)NC(COS(=O)(=O)O)COS(=O)(=O)O)cc1 [compound 32, O-sulfated divalent amide 32]
  IC50: 1000 nM
